Results from patent US9522194B2, “Methods of using monomethylvaline compositions having phenylalanine carboxy modifications at the C-terminus” (priority 2005, dated 2016).
Non-standard residues stand in square brackets, D forms with d. Residues, ends and D or L forms follow the SMILES beside them. ξ: configuration not given here. *: point of attachment. Dolaproine = CO[C@@H]([C@@H]1CCCN1)[C@@H](C)C(=O)O; Dil = CC[C@H](C)[C@H](NC)[C@@H](CC(=O)O)OC; X1 = c1ccc(C[C@H](N*)c2nn[nH]n2)cc1; X2 = C[C@@H](N*)[C@@H](O)c1ccccc1; NMeV = CN[C@H](C(=O)O)C(C)C; ξNMeV = CNC(C(=O)O)C(C)C

Columns and labels:
[1] = test system: breast carcinoma cell line H3396; experiment: In vitro activity of free drugs; type: cell-based; details: free drug
Protocol: The cytotoxic activity of MMAZ and other compounds is evaluated on the Lewis Y positive cell lines OVCAR-3, H3396 breast carcinoma, L2987 lung carcinoma and LS174t colon carcinoma Lewis Y positive cell lines can be assayed for cytotoxicity. To evaluate the cytotoxicity of compounds, cells can be seeded at approximately 5-10,000 per well in 150 μl of culture medium then treated with graded doses of compounds in quadruplicates at the initiation of assay. Cytotoxicity assays are usually carried out for 96 hours after addition of test compounds. Fifty μl of resazurin dye may be added to each well during the last 4 to 6 hours of the incubation to assess viable cells at the end of culture. Dye reduction can be determined by fluorescence spectrometry using the excitation and emission wavelengths of 535 nm and 590 nm, respectively. For analysis, the extent of resazurin reduction by the treated cells can be compared to that of the untreated control cells.

[2] = test system: Hodgkin's disease cell line L540cy; experiment: In vitro cytotoxicity of free drugs (resazurin, 96 h); type: cell-based; details: free drug, read-out: IC50s (nM) L540cy
[3] = test system: colon carcinoma cell line HCT-116; experiment: as above; type: cell-based; details: free drug, read-out: IC50s (nM) HCT-116
[4] = test system: renal cell carcinoma cell line 786-O; experiment: as above; type: cell-based; details: free drug, read-out: IC50s (nM) 786-O
[5] = test system: anaplastic large cell lymphoma cell line Karpas 299; experiment: as above; type: cell-based, human; details: free drug, read-out: IC50s (nM) Karpas 299
[6] = test system: Hodgkin's disease cell line L428; experiment: as above; type: cell-based; details: free drug, read-out: IC50s (nM) L428
[7] = test system: renal cell carcinoma cell line Caki-1; experiment: as above; type: cell-based; details: free drug, read-out: IC50s (nM) Caki-1
[8] = test system: CD70+ 786-O renal cell carcinoma cell line; experiment: In vitro efficacy of antibody drug conjugates, 96 hours incubation; type: cell-based
[9] = test system: CD70+ Caki-1 renal cell carcinoma cell line; experiment: as above; type: cell-based
CD30+ L540cy cell line = experiment: as above; type: cell-based; details: cAC10 (chimeric anti-CD30) conjugate of the named linker-drug, 4 drugs per antibody
Protocol: (§1) To evaluate the cytotoxicity of Exemplary Conjugates, cells are seeded at approximately 5-10,000 per well in 150 μl of culture medium then treated with graded doses of Exemplary Conjugates in quadruplicates at the initiation of assay. Cytotoxicity assays are carried out for 96 hours after addition of test compounds. Fifty μl of the resazurin dye is added to each well during the last 4 to 6 hours of the incubation to assess viable cells at the end of culture. Dye reduction is determined by fluorescence spectrometry using the excitation and emission wavelengths of 535 nm and 590 nm, respectively. For analysis, the extent of resazurin reduction by the treated cells is compared to that of the untreated control cells.
(§2) IC50 values are defined as the concentration where growth is reduced 50% compared with untreated control cultures. Each concentration is tested in quadruplicate. The conjugates contain 4 drugs per antibody.

[10] = test system: CD30+ Karpas 299 cell line; experiment: as above; type: cell-based, human; details: cAC10 (chimeric anti-CD30) conjugate of the named linker-drug, 4 drugs per antibody
Protocol: as §1, §2

[11] = test system: L428 cell line (CD70+, CD30+); experiment: as above; type: cell-based

| Molecule | IC50 of c1F6 ADCs (ng/mL) 786-O [8] [ng/mL] | IC50 of c1F6 ADCs (ng/mL) Caki-1 [9] [ng/mL] | IC50 of cAC10 ADCs (ng/mL) L540cy (CD30+ L540cy cell line) [ng/mL] | IC50 of cAC10 ADCs (ng/mL) Karpas 299 [10] [ng/mL] | IC50 of cAC10 ADCs (ng/mL) L428 [11] [ng/mL] | also measured |
| --- | --- | --- | --- | --- | --- | --- |
| CC[C@H](C)[C@@H]([C@@H](CC(=O)N1CCC[C@H]1[C@H](OC)[C@@H](C)C(=O)N[C@@H](Cc1ccccc1)c1nn[nH]n1)OC)N(C)C(=O)[C@@H](NC(=O)C(NC)C(C)C)C(C)C (some centres unmarked) [Drug 1003] (H-[ξNMeV]V[Dil][Dolaproine]-X1) |  |  |  |  |  | IC50 ([1]; Homo sapiens): 6 nM |
| CC[C@H](C)[C@@H]([C@@H](CC(=O)N1CCC[C@H]1[C@H](OC)[C@@H](C)C(=O)N[C@H](C)[C@@H](O)c1ccccc1)OC)N(C)C(=O)[C@@H](NC(=O)[C@@H](NC)C(C)C)C(C)C [MMAE] (H-[NMeV]V[Dil][Dolaproine]-X2) |  |  |  |  |  | IC50 [1]: 0.7 nM |
| CC[C@H](C)[C@@H]([C@@H](CC(=O)N1CCC[C@H]1[C@H](OC)[C@@H](C)C(=O)N[C@@H](Cc1ccccc1)C(=O)O)OC)N(C)C(=O)[C@@H](NC(=O)[C@@H](NC)C(C)C)C(C)C [MMAF, N-methylvaline-valine-dolaisoleuine-dolaproine-phenylalanine] (H-[NMeV]V[Dil][Dolaproine]F-OH) |  |  |  |  |  | IC50 [2]: 130 nM; IC50 [3]: 310 nM; IC50 [4]: 380 nM; IC50 [5]: 240 nM; IC50 [6]: 58 nM; IC50 [1]: 15 nM; IC50 [7]: 234 nM |
| CO[C@@]12[C@H](COC(N)=O)C3=C(C(=O)C(C)=C(N)C3=O)N1C[C@@H]1N[C@@H]12 [Mitomycin C] |  |  |  |  |  | IC50 [2]: 134 nM; IC50 [3]: 166 nM; IC50 [4]: 32.3 nM; IC50 [5]: 105 nM; IC50 [6]: 187 nM; IC50 [7]: 14.5 nM |
| MaleimidocaproylNMeValValDilDapphosphonoPhe [mc-MMApF-A] | 3.5 | 8.9 | 2.7 | 10.9 | 0.423 |  |
| MaleimidocaproylNMeValValDilDapphosphonoPhe [mc-MMApF-B] | >1000 | >1000 | >5000 | >5000 | >5000 |  |
| MaleimidocaproylValCitp-aminobenzoyl-NMeValValDil-DapphosphonoPhe [mc-vc-PAB-MMApF] | >1000 | 29.5 |  |  |  |  |
| mc-MMAF | 135 | 47.3 | 3.4 | 7.6 | 1.3 |  |
